Laboratory results: ChEMBL document CHEMBL5236671, “Synthesis and biological evaluation of novel aromatic amide derivatives as potential BCR-ABL inhibitors” (Bioorg Med Chem Lett, 2023)
Active and inactive are the calls of the source. No cut-off for these calls is given here.

How the values were obtained:
K562 [1] = experiment: Antitumor activity against human K562 cells assessed as inhibition of cell growth; format: functional, cell-based
HL-60 = experiment: Antitumor activity against human HL-60 cells assessed as inhibition of cell growth; format: functional, cell-based
MCF7 = experiment: Antitumor activity against human MCF7 cells assessed as inhibition of cell growth; format: functional, cell-based
K562 [2] = experiment: Antimigratory activity against human K562 cells assessed as decrease in cell migration at 2.5 to 10 uM; format: functional, cell-based; conditions: dose 2.5-10 µM
K562 [3] = experiment: Induction of apoptosis in human K562 cells assessed as viable cells at 2.5 uM incubated for 24 hrs by Annexin V-FITC staining based flow cytometric analysis (reference value: 93.4 % ); format: functional; conditions: read-out: Activity
K562 [4] = experiment: Induction of apoptosis in human K562 cells assessed as early apoptotic cells at 2.5 uM incubated for 24 hrs by Annexin V-FITC staining based flow cytometric analysis (reference value: 3.90 % ); format: functional
K562 [5] = experiment: Induction of apoptosis in human K562 cells assessed as late apoptotic cells at 2.5 uM incubated for 24 hrs by Annexin V-FITC staining based flow cytometric analysis (reference value: 1.82 % ); format: functional
K562 [6] = experiment: Induction of apoptosis in human K562 cells assessed as necrotic cells at 2.5 uM incubated for 24 hrs by Annexin V-FITC staining based flow cytometric analysis (reference value: 0.82 % ); format: functional
K562 [7] = experiment: Induction of apoptosis in human K562 cells assessed as viable cells at 5 uM incubated for 24 hrs by Annexin V-FITC staining based flow cytometric analysis (reference value: 93.4 % ); format: functional; conditions: read-out: Activity
K562 [8] = experiment: Induction of apoptosis in human K562 cells assessed as early apoptotic cells at 5 uM incubated for 24 hrs by Annexin V-FITC staining based flow cytometric analysis (reference value: 3.90 % ); format: functional
K562 [9] = experiment: Induction of apoptosis in human K562 cells assessed as late apoptotic cells at 5 uM incubated for 24 hrs by Annexin V-FITC staining based flow cytometric analysis (reference value: 1.82 % ); format: functional
K562 [10] = experiment: Induction of apoptosis in human K562 cells assessed as necrotic cells at 5 uM incubated for 24 hrs by Annexin V-FITC staining based flow cytometric analysis (reference value: 0.82 % ); format: functional
K562 [11] = experiment: Induction of apoptosis in human K562 cells assessed as viable cells at 10 uM incubated for 24 hrs by Annexin V-FITC staining based flow cytometric analysis (reference value: 93.4 % ); format: functional; conditions: read-out: Activity
K562 [12] = experiment: Induction of apoptosis in human K562 cells assessed as early apoptotic cells at 10 uM incubated for 24 hrs by Annexin V-FITC staining based flow cytometric analysis (reference value: 3.90 % ); format: functional
K562 [13] = experiment: Induction of apoptosis in human K562 cells assessed as late apoptotic cells at 10 uM incubated for 24 hrs by Annexin V-FITC staining based flow cytometric analysis (reference value: 1.82 % ); format: functional
K562 [14] = experiment: Induction of apoptosis in human K562 cells assessed as necrotic cells at 10 uM incubated for 24 hrs by Annexin V-FITC staining based flow cytometric analysis (reference value: 0.82 % ); format: functional
K562 [15] = experiment: Induction of apoptosis in human K562 cells assessed as total apoptotic cells at 10 uM incubated for 24 hrs by Annexin V-FITC staining based flow cytometric analysis (reference value: 5.72 % ); format: functional
[16] = target: Tyrosine-protein kinase ABL1 (Homo sapiens) (UniProt P00519); experiment: Inhibition of ABL1 phosphorylation in human K562 cells at 2.5 to 10 uM by Western blot analysis; format: cell-based; conditions: dose 2.5-10 µM
Sequence of Tyrosine-protein kinase ABL1 (Homo sapiens) (P00519 whole entry): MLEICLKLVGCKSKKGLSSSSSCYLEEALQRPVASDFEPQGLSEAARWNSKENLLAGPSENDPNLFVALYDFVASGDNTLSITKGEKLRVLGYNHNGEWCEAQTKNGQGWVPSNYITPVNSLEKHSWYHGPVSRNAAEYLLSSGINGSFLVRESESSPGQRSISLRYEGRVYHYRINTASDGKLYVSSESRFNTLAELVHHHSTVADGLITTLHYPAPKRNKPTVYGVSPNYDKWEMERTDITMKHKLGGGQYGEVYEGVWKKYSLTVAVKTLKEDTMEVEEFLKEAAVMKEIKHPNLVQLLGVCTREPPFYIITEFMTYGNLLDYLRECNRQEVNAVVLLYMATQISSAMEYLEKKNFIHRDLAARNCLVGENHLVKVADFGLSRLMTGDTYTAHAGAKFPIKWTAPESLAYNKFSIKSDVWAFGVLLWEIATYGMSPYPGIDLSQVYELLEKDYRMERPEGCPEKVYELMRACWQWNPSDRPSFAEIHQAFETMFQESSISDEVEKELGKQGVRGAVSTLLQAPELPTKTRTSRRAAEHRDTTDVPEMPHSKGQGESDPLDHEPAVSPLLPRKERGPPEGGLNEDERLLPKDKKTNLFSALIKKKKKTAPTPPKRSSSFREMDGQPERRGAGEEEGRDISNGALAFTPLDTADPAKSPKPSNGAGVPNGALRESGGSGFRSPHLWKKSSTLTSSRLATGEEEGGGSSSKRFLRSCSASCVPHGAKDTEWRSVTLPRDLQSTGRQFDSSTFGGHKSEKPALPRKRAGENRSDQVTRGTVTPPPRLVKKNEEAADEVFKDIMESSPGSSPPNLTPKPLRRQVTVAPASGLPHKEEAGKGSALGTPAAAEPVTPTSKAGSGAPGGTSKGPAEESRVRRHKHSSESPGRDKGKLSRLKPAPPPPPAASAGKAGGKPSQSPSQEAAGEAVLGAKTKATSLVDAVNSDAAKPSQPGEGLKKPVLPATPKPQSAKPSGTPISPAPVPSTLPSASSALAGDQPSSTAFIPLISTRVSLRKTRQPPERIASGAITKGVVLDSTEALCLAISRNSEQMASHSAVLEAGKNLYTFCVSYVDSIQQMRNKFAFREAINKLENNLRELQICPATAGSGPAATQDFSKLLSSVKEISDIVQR

[17] = target: Crk-like protein (Homo sapiens) (UniProt P46109); experiment: Inhibition of CRKL phosphorylation in human K562 cells at 2.5 to 10 uM by Western blot analysis; format: cell-based; conditions: dose 2.5-10 µM
Sequence of Crk-like protein (Homo sapiens) (P46109 whole entry): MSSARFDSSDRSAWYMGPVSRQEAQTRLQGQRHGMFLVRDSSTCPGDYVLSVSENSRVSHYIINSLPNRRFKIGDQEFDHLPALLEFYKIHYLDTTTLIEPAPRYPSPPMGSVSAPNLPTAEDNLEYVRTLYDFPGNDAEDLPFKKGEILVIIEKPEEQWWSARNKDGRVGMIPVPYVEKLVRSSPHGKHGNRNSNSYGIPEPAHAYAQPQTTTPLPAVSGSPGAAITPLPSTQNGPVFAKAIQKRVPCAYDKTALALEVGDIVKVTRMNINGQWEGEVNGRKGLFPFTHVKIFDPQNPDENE

K562 [18] = experiment: Induction of apoptosis in human K562 cells assessed as increase in caspase-3 expression by Western blot analysis; format: functional, cell-based; conditions: dose 2.5-10 µM
K562 [19] = experiment: Induction of apoptosis in human K562 cells assessed as increase in cleaved caspase-3 expression by Western blot analysis; format: functional, cell-based; conditions: dose 2.5-10 µM

| IC50 (K562 [1]) [µM] | IC50 (HL-60) [µM] | IC50 (MCF7) [µM] | SMILES | also measured |
| --- | --- | --- | --- | --- |
| 31.4 | 23.4 | 29.1 | COc1ccc(NC(=O)c2ccc(CN3CCN(C)CC3)cc2)cc1-n1cc(C)nc1C |  |
| 5.66 | 16.8 | 23.5 | Cc1cn(-c2cc(NC(=O)c3ccc(CN4CCN(C(C)(C)C)CC4)cc3)cc(C(F)(F)F)c2)cn1 | Activity (K562 [2]): Active; viability at 2.5 µM (K562 [3]): 86.3%; Activity (K562 [4]): 1.9%; Activity (K562 [5]): 10.84%; Activity (K562 [6]): 1%; viability at 5 µM (K562 [7]): 71.1%; Activity (K562 [8]): 2.8%; Activity (K562 [9]): 22.68%; Activity (K562 [10]): 3.44%; viability at 10 µM (K562 [11]): 57.9%; Activity (K562 [12]): 3.02%; Activity (K562 [13]): 34.56%; Activity (K562 [14]): 4.56%; Activity (K562 [15]): 37.58%; inhibition [16]: Active; inhibition [17]: Active; Activity (K562 [18]): Dose-Dependent Effect; Activity (K562 [19]): Dose-Dependent Effect |
| 10.8 | 17 | 9.61 | Cc1cn(-c2cc(NC(=O)c3ccc(CN4CCN(C)CC4)cc3)cc(C(F)(F)F)c2)c(C)n1 |  |
| 15.8 | 36 | > 50 | Cc1cn(-c2cccc(NC(=O)c3ccc(CN4CCN(C)CC4)cc3)c2)c(C)n1 |  |
| 15.4 | 18.8 | 29 | CN1CCN(Cc2ccc(C(=O)Nc3cc(-n4ccnc4)cc(C(F)(F)F)c3)cc2)CC1 |  |
| 13.6 | 21.2 | 19 | Cc1cn(-c2cc(NC(=O)c3ccc(CN4CCN(C)CC4)cc3)cc(C(F)(F)F)c2)cn1 |  |
| 13.2 | 22.1 | 40.6 | Cc1cn(-c2cc(NC(=O)c3ccc(CN4CC(C)OC(C)C4)cc3)cc(C(F)(F)F)c2)cn1 (stereo unspecified) |  |
| 13.3 | 18.6 | 15.6 | CN1CCN(Cc2ccc(C(=O)Nc3cc(-n4cnc(C#N)c4)cc(C(F)(F)F)c3)cc2)CC1 |  |
| 13.4 | 24.9 | 37.9 | Cc1cn(-c2cc(NC(=O)c3ccc(CN4CCCC4)cc3)cc(C(F)(F)F)c2)cn1 |  |
| 33.2 | > 50 | > 50 | CCCCN1CCN(Cc2ccc(C(=O)Nc3ccc(C)c(-n4cnc(C)c4)c3)cc2)CC1 |  |
| 22.4 | 34.9 | 30.2 | CCCCN1CCN(Cc2ccc(C(=O)Nc3cc(-n4ccnc4)cc(C(F)(F)F)c3)cc2)CC1 |  |
| 10.5 | 14.8 | 13.1 | Cc1cn(-c2cc(NC(=O)c3ccc(CN4CCN(C(C)C)CC4)cc3)cc(C(F)(F)F)c2)cn1 |  |
| 24.1 | 16.9 | 24.2 | Cc1cn(-c2cc(NC(=O)c3ccc(CN4CCOC[C@@H]4C)cc3)cc(C(F)(F)F)c2)cn1 |  |
| 14.5 | 13.3 | > 50 | Cc1cn(-c2cc(NC(=O)c3ccc(CN4CCN(C(=O)C5CC5)CC4)cc3)cc(C(F)(F)F)c2)cn1 |  |
| 39.7 | > 50 | > 50 | Cc1cn(-c2cc(NC(=O)c3ccc(CN4CCN(C)CC4)cc3)ccc2C)cn1 |  |
| 14 | 17.2 | 25.6 | Cc1ccc(NC(=O)c2ccc(CN3CCN(C)CC3)cc2)cc1Nc1nccc(-c2cccnc2)n1 [IMATINIB] | viability at 10 µM (K562 [11]): 76.7%; Activity (K562 [12]): 4.9%; Activity (K562 [13]): 18.2%; Activity (K562 [14]): 0.2%; Activity (K562 [15]): 23.1% |
| 13.3 | 17.2 | > 50 | CCN1CCN(Cc2ccc(C(=O)Nc3cc(-n4cnc(C)c4)cc(C(F)(F)F)c3)cc2)CC1 |  |
| 16.8 | 25.8 | > 50 | Cc1cn(-c2cc(NC(=O)c3ccc(CN4CCOC(C)C4)cc3)cc(C(F)(F)F)c2)cn1 (stereo unspecified) |  |
| > 50 | > 50 | > 50 | CC(=O)N1CCN(Cc2ccc(C(=O)Nc3cc(-n4cnc(C)c4)cc(C(F)(F)F)c3)cc2)CC1 |  |
| 23.6 | > 50 | > 50 | Cc1cn(-c2cc(NC(=O)c3ccc(CN4CCOCC4)cc3)cc(C(F)(F)F)c2)cn1 |  |
| 6.03 | 17.9 | 20.1 | CCCCN1CCN(Cc2ccc(C(=O)Nc3cc(-n4cnc(C)c4)cc(C(F)(F)F)c3)cc2)CC1 | Activity (K562 [2]): Active; inhibition [16]: Active; inhibition [17]: Active; Activity (K562 [18]): Dose-Dependent Effect; Activity (K562 [19]): Dose-Dependent Effect |
